Test results: ChEMBL document CHEMBL1201862, “PubChem BioAssay data set” (2004)
Activity calls are given as the source filed them.

Experiments:
Nonstructural protein 1 = Nonstructural protein 1 (Influenza A virus, UniProt Q194T2); type: functional, Influenza A virus (A/California/07/2009(H1N1))
Protein Tat = target: T1, Protein Tat (Human immunodeficiency virus type 1 group M subtype B (isolate HXB2)(HIV-1), UniProt P04608); type: functional;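 note: tat binding to TAR RNA read out by fluorescence polarization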
T1 sequence (P04608 whole entry): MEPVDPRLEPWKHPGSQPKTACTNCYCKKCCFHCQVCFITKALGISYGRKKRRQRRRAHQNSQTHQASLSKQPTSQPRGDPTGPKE

[1] = blockers of HIV-1 envelope-mediated cell-cell fusion – cherry-pick, dose response (AID 652057); type: functional, cell-based
[2] = blockers of HIV-1 ZM109 envelope-driven cell-cell fusion – HeLa effector, CEM target cells, luciferase, cherry-pick, dose response (AID 652058); type: functional, cell-based;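 note: luciferase signal from HIV-1 Env mediated cell-cell fusion of effector and target cells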
[3] = off-target signal loss in HeLa-CEM21 co-culture – HeLa F-luc CTL cells, cherry-picked, counter-screen for HIV-1 Env fusion inhibitor project, dose response (AID 652040); type: functional, cell-based;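 note: potency for signal decrease marking cytotoxic or nonspecific inhibition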
[4] = HIV-1 AD8 envelope cell-cell fusion blockers – cherry-pick, dose response (AID 652062); type: functional, cell-based;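 note: luciferase signal from cell-cell fusion driven by HIV-1 clade B AD8 Env; potency is for inhibitors of fusion seen as a drop in luminescence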
Kallikrein-7 = Kallikrein-7 (Homo sapiens, UniProt P49862); experiment: Fluorescence Intensity-based biochemical primary high throughput dose response assay to identify activators of kallikrein-7 (K7) zymogen.
Chain of Kallikrein-7 (P49862 whole entry): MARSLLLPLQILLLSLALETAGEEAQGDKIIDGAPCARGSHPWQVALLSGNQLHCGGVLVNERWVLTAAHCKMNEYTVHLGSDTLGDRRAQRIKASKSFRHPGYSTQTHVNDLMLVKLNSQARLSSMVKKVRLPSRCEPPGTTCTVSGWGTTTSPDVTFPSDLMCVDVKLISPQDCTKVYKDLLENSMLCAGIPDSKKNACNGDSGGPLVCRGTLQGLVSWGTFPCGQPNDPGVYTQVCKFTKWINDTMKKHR

[5] = A549 cell cytotoxicity, dose response, cytotoxicity control, plate reader, cherry-pick, antagonist series (AID 743412); type: functional, cell-based
[6] = toxicity toward HepG2 liver cells – cell-based, plate reader, cherry-pick, antagonist series, cytotoxicity control, dose response (AID 743416); type: functional
[7] = blockers of bursicon-stimulated LGR2 cAMP reporter – cell-based, HEK293, CRE-luciferase reporter, cherry pick, set 2, dose response (AID 743343); type: functional;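 note: transfected cells were stimulated with diluted bursicon conditioned medium after compound addition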
[8] = blockade of melanocortin 4 receptor signaling – cell-based, plate reader, cherry pick, counter-screen for LGR2 antagonist project, dose response (AID 743444); type: functional;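 note: transfected HEK 293 cells stimulated with alpha-MSH peptide; potency of inhibitors of the alpha-MSH evoked signal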
[9] = viability loss in HEK293 cells – cell-based, plate reader, cherry-picked samples, cytotoxicity control, dose response (AID 743446); type: functional
[10] = T. cruzi growth inhibition in host cells, dose response, cell-based, plate reader, dry powder, set 2 (AID 652275); type: functional
BJ [11] = experiment: BJ-TERT fibroblast viability loss – cell-based, RAS-independent, luminescence, dose response (AID 1933); type: functional; settings: Homo sapiens
BJ [12] = experiment: cells; type: functional, cell-based; settings: Homo sapiens
BJ [13] = experiment: BJ-TERT-LT-ST fibroblast viability loss – cell-based, RAS-independent, luminescence, dose response (AID 1935); type: functional; settings: Homo sapiens;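 note: BJ fibroblasts immortalized with TERT plus LT and ST oncogenes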
[14] = DRD fibroblast viability loss – cell-based, non-viral oncogenic, luminescence, dose response (AID 1934); type: functional; settings: Homo sapiens
[15] = viability loss in Vero cells – cytotoxicity control for Vif-APOBEC3G degradation inhibitor project, dose response (AID 1117358); type: functional; settings: Vero
[16] = growth inhibition of yeast DHODH-expressing 3D7 parasites – SYBR Green, dry powder samples, dose response (AID 1159570); type: functional, cell-based;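 note: parasite growth measured after 72 hours of compound exposure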
[17] = P. falciparum Dd2 growth inhibitors, dose response, SYBR Green, cherry-picked samples (AID 1159567); type: functional, cell-based
[18] = Dd2 malaria parasite growth inhibition potency – SYBR Green, dry powder samples, dose response (AID 1159566); type: functional, cell-based;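 note: potency for growth inhibition with lower SYBR green DNA signal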
[19] = growth inhibition of PfATP4-mutant resistant parasites – NITD609-resistant line, SYBR Green, dry powder, dose response (AID 1159571); type: functional, cell-based;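 note: parasites synchronized at ring stage by sorbitol before testing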
Paired box protein Pax-8 = Paired box protein Pax-8 (Homo sapiens, UniProt Q06710); experiment: PAX8 transcriptional activity inhibition in RMG-I – RMG-I cells, luciferase, cherry-pick, dose response (AID 687027); type: functional, cell-based;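 note: luciferase reporter driven by Pax8 target thyroperoxidase promoter measured by SteadyGlo luminescence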
Chain of Paired box protein Pax-8 (Q06710 whole entry): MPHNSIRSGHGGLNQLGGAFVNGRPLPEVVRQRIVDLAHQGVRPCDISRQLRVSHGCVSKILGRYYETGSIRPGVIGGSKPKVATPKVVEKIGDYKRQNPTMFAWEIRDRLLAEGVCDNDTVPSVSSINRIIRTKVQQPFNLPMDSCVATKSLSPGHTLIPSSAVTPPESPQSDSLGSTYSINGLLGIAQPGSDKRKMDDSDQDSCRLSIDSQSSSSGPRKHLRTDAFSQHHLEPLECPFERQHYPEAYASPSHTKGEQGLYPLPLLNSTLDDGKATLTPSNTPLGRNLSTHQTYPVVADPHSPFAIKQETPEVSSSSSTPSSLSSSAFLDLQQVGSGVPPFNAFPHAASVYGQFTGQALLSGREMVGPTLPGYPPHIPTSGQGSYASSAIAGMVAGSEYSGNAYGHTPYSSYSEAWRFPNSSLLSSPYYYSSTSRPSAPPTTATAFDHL

[20] = general cell-killing toxicity readout – plate reader, dry powder samples, cytotoxicity control for PAX8 inhibitor project, dose response (AID 743021); type: functional, cell-based

Chain of Nonstructural protein 1 (Q194T2 whole entry): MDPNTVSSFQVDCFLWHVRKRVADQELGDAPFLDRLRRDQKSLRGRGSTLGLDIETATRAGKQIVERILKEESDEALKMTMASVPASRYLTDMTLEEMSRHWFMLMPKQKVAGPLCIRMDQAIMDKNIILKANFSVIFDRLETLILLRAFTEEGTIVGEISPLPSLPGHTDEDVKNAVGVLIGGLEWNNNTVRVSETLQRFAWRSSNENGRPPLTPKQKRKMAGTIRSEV

O=C1CC(Nc2ccc(N3CCOCC3)cc2)C(=O)N1c1cccc(C(F)(F)F)c1 (stereo unspecified)
IC50 (Nonstructural protein 1): > 100 µM (active) | IC50 (Protein Tat): 29.5 µM (inconclusive)

CCN1C(=O)[C@H]2[C@@H](c3ccc(C)cc3)N3C(=O)N(c4ccc(C(F)(F)F)cc4)C(=O)[C@@]3(CC(C)C)[C@H]2C1=O
AC50 [1]: 2 µM (active) | AC50 [2]: 3.63 µM (active) | AC50 [3]: 2.35 µM (active) | AC50 [4]: 4.99 µM (active)

CC1CC(C)CN(C(=O)c2cc3c(=O)n4ccccc4nc3s2)C1 (stereo unspecified)
EC50 (Kallikrein-7): > 69.5 µM (inactive)

Cc1cccc(N2CCN(C(=O)C3CCN(c4ncnc5c4nc4n5CCCCC4)CC3)CC2)c1C
AC50 [5]: 35 µM (active) | AC50 [6]: 34.2 µM (active) | AC50 [7]: 31.3 µM (active) | AC50 [8]: 35.8 µM (active) | AC50 [9]: 27.1 µM (active)

CN(C)C(=O)c1cccc(-c2ccc([C@@H]3[C@H](CO)N4CCCCN(C(=O)C5CCC5)C[C@@H]34)cc2)c1
AC50 [10]: 4.83 µM (active)

CC(C)CN(C(=O)CN1CCN(c2ccc(O)cc2)CC1)c1c(N)n(CC(C)C)c(=O)[nH]c1=O
IC50 (Protein Tat): > 100 µM (active)

O=C(/C=C/c1cccs1)Nc1ccc(Br)cn1
EC50 (BJ [11]): 417 nM (inconclusive) | EC50 (BJ [12]): 25.5 µM (inconclusive) | EC50 (BJ [13]): 10.2 µM (inconclusive) | EC50 [14]: 373 nM (inconclusive) | CC50 [15]: > 40 µM (active)

COC(=O)C1=C(N)Oc2cc(C)n(Cc3cccnc3)c(=O)c2C1c1cccc(OC)c1OC (stereo unspecified)
CC50 [15]: > 40 µM (active)

COc1ccc2c3c(n(C)c2c1)[C@@H](CO)N(C(=O)Nc1ccc(F)cc1)CC31CCN(Cc2ccccn2)CC1
AC50 [16]: 1.69 µM (active) | AC50 [17]: 3.18 µM (active) | AC50 [18]: 2.05 µM (active) | AC50 [19]: 2.11 µM (active)

C[C@@H]1CN([C@H](C)CO)C(=O)c2cc(NS(=O)(=O)c3ccc(Cl)cc3)ccc2O[C@@H](C)CCCCO[C@@H]1CN(C)Cc1ccccc1
AC50 (Paired box protein Pax-8): 4.7 µM (active) | AC50 [20]: 43 µM (active)
